Patent US8486900B2, “Method for preparing a Centella asiatica extract rich in madecassoside and in terminoloside” (Bayer Consumer Care AG, priority 2002, dated 2013)
Several values for one entry are separate records, joined by “and”; a condition that tells them apart may be missing. Equal values may be shown once.

Experiments:
[1] = Immunomodulatory activity
NFκB = test: TNF-α-induced activation of NFκB in nuclei of normal human fibroblasts; assay type: cell-based; settings: TNF-α 25 ng/ml, 5 mM sulfasalazine
Experimental: This study makes it possible to evaluate the effects of the mixture according to the invention on the activation of NFκB, using a very sensitive specific method based on measuring the binding of the transcription factor NFκB to the consensus oligonucleotide sequence immobilized on a plastic support. Bound NFκB is secondarily recognized by a specific anti-NFκB antibody. This assay was carried out on isolated nuclei of normal human fibroblasts. The culture medium is DMEM, which comprises: • 2 mM L-glutamine • 50 IU/ml penicillin, 50 μg/ml streptomycin • 10% (v/v) fetal calf serum for the preculture and then a switch to serum-free medium The fibroblasts were precultured in 175 cm^2 flasks in DMEM medium containing 10 vol % of FCS until confluency, and the culture medium was then replaced with serum-free DMEM medium. The cells were then cultured in the presence of the products to be assayed or of references, for 1 hour. The proinflammatory agent […] (TNF-α, at 25 ng/ml final concentration; Sigma T0157) was then added to the culture medium and the cells were again incubated for 1 hour at 37° C. and 5% CO2. After incubation, the cells were harvested on ice and the cell nuclei of the various samples were isolated using the Sigma NUC-101 kit according to the protocol recommended by the supplier. The amount of proteins of each nuclear extract was determined using the Biorad 500-0116 assay kit. The amount of activated NFκB bound to the specific oligonucleotide was measured on the same amount of nuclear extract of each sample, i.e. 50 μl, diluted 50/50, after visualization using a specific anti-NFκB antibody. […] AU represents the arbitrary units of NFκB in the extract; this is the difference between the measured value and the background noise.

Compound	immunomodulatory activity [1]	NFκB (AU), mean (NFκB)	NFκB (AU), single values (NFκB)	NFκB, % control (NFκB; control with TNF-α = 100)
terminolic acid	no immunomodulatory activity	–	–	–
O=C(O)c1cc(/N=N/c2ccc(S(=O)(=O)Nc3ccccn3)cc2)ccc1O [sulfasalazine, Sulfasalazine]	–	4.19 AU	4.93 AU and 4.01 AU and 2.88 AU	44%
